Experimental data as given in patent US20250026721A1, “COMPOUNDS AND METHODS FOR MODULATING RAS-PI3K” (Vividion Therapeutics, Inc., priority 2023, published 2025).
pIC50: −log10 of the molar value.

How the values were obtained:
PIK3CA = molecular target: T1, PIK3CA (Homo sapiens, UniProt P42336); assay: In vitro ELISA target engagement assay for PIK3CA in Jurkat cellular lysate (competition with PIK3CA Biotin Probe); type: binding; settings: 1 hour at rt, then 500 nM PIK3CA Biotin Probe, read-out: Elisa Target Engagement Assay (TE50)
T1 construct: endogenous in cells; host or cells: Jurkat cell lysate
In short: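 Competition format in Jurkat lysate: compound (serial dilutions, top 200 μM) for 1 h at rt, then 500 nM final biotinylated PIK3CA probe for 1 h at rt. Sandwich ELISA with capture antibody and Neutravidin-HRP luminescence read-out measured probe-labelled PIK3CA, giving TE50.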

[1] = system: pAKT(S473) in FaDu cell line; assay: In vitro Phospho-AKT(S473) HTRF analysis in FaDu cells; type: cell-based; settings: Homo sapiens, 0.5 h; for pIC50: FaDu cells, 30 minutes at 37° C.; for Emax: FaDu, read-out: FaDu pAKT Imax % control
Description: Example 5. In Vitro Phosgho-AKT(S473) Analysis
Functional activity of the compounds to inhibit pAKT were assessed in FaDu or H358 cell lines as indicated below.
• Complete Media • FBS, Corning catalog #35-010-CV • Anti-Anti, Gibco catalog #15240-062 • 96 well plate, Corning catalog #3610 • TrypLE, Gibco catalog #12604013 • Phospho-AKT(S473) HTRF kit, Cisbio catalog #64AKSPET
Cells were detached from the tissue culture flask with TrypLE. The cells were pelleted at 500×g for 5 min, TrypLe was removed and then resuspended in the necessary volume of media+1% FBS to give the appropriate cell density (17,500 cells/mL for FaDu; 20,000 cells/mL for H358). 100 μL of cell suspension/well was dispensed into the 96-well plate while keeping the outer wells of the plate free of cells and filled with PBS to prevent evaporation of interior wells. The plate was incubated at 37° C. and allowed to adhere overnight. The cells were treated with a dose response of compound and incubated at 37° C. for 30 minutes. The cells were then processed and pAKT(S473) levels were assessed following the specifications of the Cisbio HTRF kit.

T1 sequence (P42336 whole entry): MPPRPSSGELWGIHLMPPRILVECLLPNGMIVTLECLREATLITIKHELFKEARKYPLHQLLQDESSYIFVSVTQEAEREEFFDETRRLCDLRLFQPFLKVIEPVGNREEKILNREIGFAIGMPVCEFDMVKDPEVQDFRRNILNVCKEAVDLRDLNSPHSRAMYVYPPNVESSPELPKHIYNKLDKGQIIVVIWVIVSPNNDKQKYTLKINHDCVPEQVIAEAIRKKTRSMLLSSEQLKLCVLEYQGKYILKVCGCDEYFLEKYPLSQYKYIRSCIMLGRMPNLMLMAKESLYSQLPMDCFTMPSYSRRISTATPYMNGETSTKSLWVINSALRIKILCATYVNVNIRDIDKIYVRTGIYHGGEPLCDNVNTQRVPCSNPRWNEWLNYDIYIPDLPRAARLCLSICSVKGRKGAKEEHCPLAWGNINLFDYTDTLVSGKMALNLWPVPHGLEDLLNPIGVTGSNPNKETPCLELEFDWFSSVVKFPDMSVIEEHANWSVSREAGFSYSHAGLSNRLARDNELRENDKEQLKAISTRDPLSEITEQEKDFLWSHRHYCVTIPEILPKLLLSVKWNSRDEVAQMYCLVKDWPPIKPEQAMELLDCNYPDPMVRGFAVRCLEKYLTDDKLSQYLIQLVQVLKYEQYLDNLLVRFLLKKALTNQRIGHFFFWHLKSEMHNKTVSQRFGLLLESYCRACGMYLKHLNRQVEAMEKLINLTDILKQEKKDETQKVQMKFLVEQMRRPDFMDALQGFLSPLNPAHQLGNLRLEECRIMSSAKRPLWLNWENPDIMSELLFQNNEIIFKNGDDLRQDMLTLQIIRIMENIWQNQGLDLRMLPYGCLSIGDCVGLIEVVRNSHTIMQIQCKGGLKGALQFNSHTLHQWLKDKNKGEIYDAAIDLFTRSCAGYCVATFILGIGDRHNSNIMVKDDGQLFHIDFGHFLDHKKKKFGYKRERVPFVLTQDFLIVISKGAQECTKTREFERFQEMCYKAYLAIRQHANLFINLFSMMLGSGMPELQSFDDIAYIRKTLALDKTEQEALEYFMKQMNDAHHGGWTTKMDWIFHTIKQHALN
T1 sequence (P27986 whole entry partner): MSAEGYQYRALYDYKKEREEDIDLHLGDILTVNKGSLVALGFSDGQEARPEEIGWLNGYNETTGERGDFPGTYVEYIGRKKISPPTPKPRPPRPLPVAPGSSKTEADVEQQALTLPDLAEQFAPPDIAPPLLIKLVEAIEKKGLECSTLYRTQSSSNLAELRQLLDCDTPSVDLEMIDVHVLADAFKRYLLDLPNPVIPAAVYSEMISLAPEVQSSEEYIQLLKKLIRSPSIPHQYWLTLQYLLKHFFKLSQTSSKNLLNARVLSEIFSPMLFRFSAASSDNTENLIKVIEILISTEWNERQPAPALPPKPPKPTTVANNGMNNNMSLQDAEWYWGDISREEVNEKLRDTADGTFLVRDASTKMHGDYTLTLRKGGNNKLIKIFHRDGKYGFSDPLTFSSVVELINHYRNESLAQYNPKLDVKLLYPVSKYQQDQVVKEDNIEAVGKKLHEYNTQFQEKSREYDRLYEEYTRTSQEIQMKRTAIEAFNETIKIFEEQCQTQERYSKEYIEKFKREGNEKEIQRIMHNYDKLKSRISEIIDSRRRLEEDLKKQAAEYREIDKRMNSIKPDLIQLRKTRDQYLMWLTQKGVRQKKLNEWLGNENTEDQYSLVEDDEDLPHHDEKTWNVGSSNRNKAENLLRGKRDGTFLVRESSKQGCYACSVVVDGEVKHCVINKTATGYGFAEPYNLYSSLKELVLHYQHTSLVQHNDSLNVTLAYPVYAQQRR

pIC50 (PIK3CA) | pIC50 [1] | Structure (SMILES) | Emax [1]
6.10 | 6.17 | C[C@H](/C=C/S(C)(=O)=O)NC(=O)[C@@]1(F)CCCN(C(=O)[C@H]2CN(CC(F)(F)F)C[C@H]2c2ccccc2Cl)CC1 [Compound 177, (R)-1-((3R,4R)-4-(2-chlorophenyl)-1-(2,2,2-trifluoroethyl)pyrrolidine-3-carbonyl)-4-fluoro-N-((R,E)-4-(methylsulfonyl)but-3-en-2-yl)azepane-4-carboxamide] | 69.5%
6.90 | 6.87 | C[C@H](/C=C\S(C)(=O)=O)NC(=O)[C@@]1(F)CCCN(C(=O)[C@H]2CN(CC(C)(F)F)C[C@H]2c2ccccc2Cl)CC1 [Compound 180, (R)-1-((3R,4R)-4-(2-chlorophenyl)-1-(2,2-difluoropropyl)pyrrolidine-3-carbonyl)-4-fluoro-N-((R,Z)-4-(methylsulfonyl)but-3-en-2-yl)azepane-4-carboxamide] | 96.9%
6.27 | 6.33 | CC[C@H](/C=C\S(C)(=O)=O)NC(=O)[C@@]1(F)CCCN(C(=O)[C@H]2CN(CC(F)(F)F)C[C@H]2c2ccccc2Cl)CC1 [Compound 198, (R)-1-((3R,4R)-4-(2-chlorophenyl)-1-(2,2,2-trifluoroethyl)pyrrolidine-3-carbonyl)-4-fluoro-N-((R,Z)-1-(methylsulfonyl)pent-1-en-3-yl)azepane-4-carboxamide] | 95.2%
6.19 | 5.95 | C[C@H](/C=C\S(C)(=O)=O)NC(=O)C1(F)CCN(S(=O)(=O)c2ccc(N3CCCC3=O)cc2-c2ccccc2Cl)CC1 [Compound 205, (R,Z)-1-((2′-chloro-5-(2-oxopyrrolidin-1-yl)-[1,1′-biphenyl]-2-yl)sulfonyl)-4-fluoro-N-(4-(methylsulfonyl)but-3-en-2-yl)piperidine-4-carboxamide] | 
6.10 | 6.14 | C[C@H](/C=C\S(C)(=O)=O)NC(=O)C1(F)CCN(C(=O)[C@H]2CN(CC(F)F)C[C@H]2c2ccccc2Cl)CC1 [Compound 206, 1-((3R,4R)-4-(2-chlorophenyl)-1-(2,2-difluoroethyl)pyrrolidine-3-carbonyl)-4-fluoro-N-((R,Z)-4-(methylsulfonyl)but-3-en-2-yl)piperidine-4-carboxamide] | 106%
6.96 | 6.67 | C[C@@H](/C=C\S(C)(=O)=O)NC(=O)C1(F)CCN(S(=O)(=O)c2cnc(C(F)(F)F)cc2-c2cccc(F)c2Cl)CC1 [Compound 210, (S,Z)-1-((4-(2-chloro-3-fluorophenyl)-6-(trifluoromethyl)pyridin-3-yl)sulfonyl)-4-fluoro-N-(4-(methylsulfonyl)but-3-en-2-yl)piperidine-4-carboxamide] | 
6.64 | 6.54 | C[C@H](/C=C/C(=O)N1CC(F)(F)C1)NC(=O)C1(F)CCN(S(=O)(=O)c2cnc(C(F)(F)F)cc2-c2ccccc2Cl)CC1 [Compound 213, (R,E)-1-((4-(2-chlorophenyl)-6-(trifluoromethyl)pyridin-3-yl)sulfonyl)-N-(5-(3,3-difluoroazetidin-1-yl)-5-oxopent-3-en-2-yl)-4-fluoropiperidine-4-carboxamide] | 90.8%
6.26 | 6.16 | C[C@H](/C=C/C(=O)N1CC(F)C1)NC(=O)C1(F)CCN(S(=O)(=O)c2ccc(C(F)(F)F)cc2-c2ccccc2Cl)CC1 [Compound 216, (R,E)-1-((2′-chloro-5-(trifluoromethyl)-[1,1′-biphenyl]-2-yl)sulfonyl)-4-fluoro-N-(5-(3-fluoroazetidin-1-yl)-5-oxopent-3-en-2-yl)piperidine-4-carboxamide] | 108%
7.21 | 6.55 | C[C@H](/C=C\S(C)(=O)=O)NC(=O)[C@@]1(F)CCCN(C(=O)c2ccc(Br)cc2-c2ccccc2Cl)CC1 [Compound 241, (R)-1-(5-bromo-2′-chloro-[1,1′-biphenyl]-2-carbonyl)-4-fluoro-N-((R,Z)-4-(methylsulfonyl)but-3-en-2-yl)azepane-4-carboxamide] | 95.3%
7.14 | 6.86 | C[C@H](/C=C\S(C)(=O)=O)NC(=O)[C@@]1(F)CCCN(C(=O)c2ccc(C(F)(F)F)cc2-c2ccccc2Cl)CC1 [Compound 242, (R)-1-(2′-chloro-5-(trifluoromethyl)-[1,1′-biphenyl]-2-carbonyl)-4-fluoro-N-((R,Z)-4-(methylsulfonyl)but-3-en-2-yl)azepane-4-carboxamide] | 
6.17 | 6.12 | C[C@H](/C=C/C(=O)N1CC(F)(F)C1)NC(=O)[C@@]1(F)CCCN(C(=O)c2ccc(Br)cc2-c2ccccc2Cl)CC1 [Compound 243, (R)-1-(5-bromo-2′-chloro-[1,1′-biphenyl]-2-carbonyl)-N-((R,E)-5-(3,3-difluoroazetidin-1-yl)-5-oxopent-3-en-2-yl)-4-fluoroazepane-4-carboxamide] | 68.7%
6.11 | 5.92 | C[C@H](/C=C/C(=O)N1CC(F)(F)C1)NC(=O)[C@@]1(F)CCCN(C(=O)c2ccc(C(F)(F)F)cc2-c2ccccc2Cl)CC1 [Compound 244, (R)-1-(2′-chloro-5-(trifluoromethyl)-[1,1′-biphenyl]-2-carbonyl)-N-((R,E)-5-(3,3-difluoroazetidin-1-yl)-5-oxopent-3-en-2-yl)-4-fluoroazepane-4-carboxamide] | 76.3%
6.21 | 6.04 | C[C@H](/C=C/C(=O)N1CC(F)(F)C1)NC(=O)[C@@]1(F)CCCN(C(=O)c2ccc(C(F)(F)F)cc2-c2c(F)cccc2Cl)CC1 [Compound 245, (4R)-1-(2′-chloro-6′-fluoro-5-(trifluoromethyl)-[1,1′-biphenyl]-2-carbonyl)-N-((R,E)-5-(3,3-difluoroazetidin-1-yl)-5-oxopent-3-en-2-yl)-4-fluoroazepane-4-carboxamide] | 86.2%
7.38 | 6.79 | COC[C@@H](/C=C\S(C)(=O)=O)NC(=O)C1(F)CCN(S(=O)(=O)c2ccc(Br)cc2-c2ccccc2Cl)CC1 [Compound 246, (R,Z)-1-((5-bromo-2′-chloro-[1,1′-biphenyl]-2-yl)sulfonyl)-4-fluoro-N-(1-methoxy-4-(methylsulfonyl)but-3-en-2-yl)piperidine-4-carboxamide] | 
6.77 | 6.25 | COC[C@@H](/C=C\S(C)(=O)=O)NC(=O)C1(F)CCN(S(=O)(=O)c2ccc(OC)cc2-c2ccccc2Cl)CC1 [Compound 248, (R,Z)-1-((2′-chloro-5-methoxy-[1,1′-biphenyl]-2-yl)sulfonyl)-4-fluoro-N-(1-methoxy-4-(methylsulfonyl)but-3-en-2-yl)piperidine-4-carboxamide] | 
6.21 | 5.92 | CC(C)(/C=C/C(=O)N1CC(F)(F)C1)NC(=O)C1(F)CCN(S(=O)(=O)c2ccc(C(F)(F)F)cc2-c2ccccc2Cl)CC1 [Compound 249, (E)-1-((2′-chloro-5-(trifluoromethyl)-[1,1′-biphenyl]-2-yl)sulfonyl)-N-(5-(3,3-difluoroazetidin-1-yl)-2-methyl-5-oxopent-3-en-2-yl)-4-fluoropiperidine-4-carboxamide] | 82.8%
